What was measured:
HSP70 = target: T1, HSP70 (Homo sapiens, UniProt P0DMV8); assay: DARTS in Jurkat lysate and living cells at […] (MS and western blot); pull-down with immobilized oridonin; type: cell-based
T1 construct: gene HSPA1A

Nucleolin = target: T2, Nucleolin (Homo sapiens, UniProt P19338); assay: SPR (Biacore […], immobilized Nucleolin on CM5 chip); supported by CETSA, DARTS and affinity pull-down; type: binding
T2 construct: gene NCL; Recombinant human Nucleolin
T2 sequence (P19338 2-710): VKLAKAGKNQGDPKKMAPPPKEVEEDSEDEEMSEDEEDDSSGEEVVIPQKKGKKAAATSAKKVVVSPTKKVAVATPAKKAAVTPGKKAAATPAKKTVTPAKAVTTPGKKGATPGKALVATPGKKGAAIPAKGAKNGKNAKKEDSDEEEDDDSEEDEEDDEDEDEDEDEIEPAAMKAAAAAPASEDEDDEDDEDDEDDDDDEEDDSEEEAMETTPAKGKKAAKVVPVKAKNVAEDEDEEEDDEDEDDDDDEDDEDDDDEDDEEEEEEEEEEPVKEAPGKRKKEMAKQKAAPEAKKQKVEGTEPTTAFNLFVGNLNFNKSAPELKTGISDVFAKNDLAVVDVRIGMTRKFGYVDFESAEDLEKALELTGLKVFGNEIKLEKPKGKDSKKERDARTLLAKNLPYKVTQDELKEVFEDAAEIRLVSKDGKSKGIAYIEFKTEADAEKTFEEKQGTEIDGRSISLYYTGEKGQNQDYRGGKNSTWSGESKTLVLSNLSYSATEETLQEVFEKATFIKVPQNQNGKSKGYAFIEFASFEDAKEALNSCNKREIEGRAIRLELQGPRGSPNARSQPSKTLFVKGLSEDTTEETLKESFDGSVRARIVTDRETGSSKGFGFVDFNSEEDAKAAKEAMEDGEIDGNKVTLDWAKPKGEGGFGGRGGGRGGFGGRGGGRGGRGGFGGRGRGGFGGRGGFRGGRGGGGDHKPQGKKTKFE

T1 sequence (P0DMV8 2-641): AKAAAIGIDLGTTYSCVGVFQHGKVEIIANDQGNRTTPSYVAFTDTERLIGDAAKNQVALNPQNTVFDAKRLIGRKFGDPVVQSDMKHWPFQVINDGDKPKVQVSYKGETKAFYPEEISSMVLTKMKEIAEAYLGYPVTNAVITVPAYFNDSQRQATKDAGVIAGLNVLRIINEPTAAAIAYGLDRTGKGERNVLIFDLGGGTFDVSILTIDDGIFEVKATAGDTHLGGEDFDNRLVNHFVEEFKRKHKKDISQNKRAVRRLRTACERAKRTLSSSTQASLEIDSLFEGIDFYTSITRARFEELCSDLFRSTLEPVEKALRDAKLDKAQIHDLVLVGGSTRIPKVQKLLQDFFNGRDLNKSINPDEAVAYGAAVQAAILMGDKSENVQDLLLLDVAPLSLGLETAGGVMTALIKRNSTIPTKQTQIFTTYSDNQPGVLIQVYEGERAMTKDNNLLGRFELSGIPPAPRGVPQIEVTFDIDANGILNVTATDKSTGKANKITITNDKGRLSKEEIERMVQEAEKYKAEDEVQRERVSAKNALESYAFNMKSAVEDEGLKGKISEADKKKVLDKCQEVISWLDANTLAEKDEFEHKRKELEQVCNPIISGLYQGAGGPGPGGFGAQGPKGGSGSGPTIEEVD

Structure (SMILES): C=C1C(=O)[C@]23[C@H](O)[C@H]1CC[C@H]2[C@@]12CO[C@]3(O)[C@@H](O)[C@@H]1C(C)(C)CC[C@@H]2O [oridonin]
- DARTS in Jurkat lysate and living cells at 5 μM (MS and western blot); pull-down (HSP70): only three proteins emerged as putative oridonin targets: HSP70, HSP90, and Nucleolin
- Kd (Nucleolin): 3.8 ± 1.2 nM

Reference: PMC6233161, “The anti-tumor diterpene oridonin is a direct inhibitor of Nucleolin in cancer cells” (Scientific Reports, 2018)
